{"source": "patent US5807535A", "about": "“Metal complexes of hydroxyaryl containing aminocarboxylic acid chelating agents” (Australian Nuclear Science & Technology Organisation, priority 1992, dated 1998)", "key": {"[1]": {"assay": "Radiolabelling of chelators with 64Cu and 67Cu", "format": "physicochemical", "settings": "ligand:metal ratio 4:1, ITLC", "method": "A typical procedure involved the dissolving Cu-67 20 μl of original stock in an acetate buffer (0.2 M; pH 4.5) to a total volume of 500 μl. To this solution was added 500 μl of the ligand (20 mg/ml) solution in acetate buffer. The mixture was then left to react at 37° C. for 20 minutes. ITLC confirmed the labelling was greater than >95%."}, "[2]": {"assay": "Biodistribution of 99mTc complexes in mice", "format": "in vivo, Balb/c mice", "outline": "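Chelator (approx. 1 mg/ml final) labelled with 99mTc via excess stannous chloride at pH approx. 6, labelling efficacy checked by ITLC-SG. Complexes diluted to 15 μCi/100 μl in saline before dosing to mice.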"}, "[3]": {"assay": "Serum stability of 99mTc complex of (1)", "format": "in vitro ADME", "settings": "first hour at 37° C., read-out: technetium lost from the chelator in serum", "method": "A typical method of radiolabelling of the chelator was achieved by dissolving the chelator in a basic solution of saline. The pH was then adjusted to approx. 6 with HCl. Excess stannous chloride was added to the resultant solution followed by one equivalent volume of sodium ^99m TcO4 (10-50 mCi/ml). Final concentration of the chelator was approx. 1 mg/ml. The efficacy of labelling was determined by ITLC-SG. For each product only one main radiochemical species was observed. Each complex was diluted to 15 μCi/100 μl with saline. […] (See FIGS. 1A and 1B)."}}, "data": [{"compound": "O=C(O)CN(CCN(CC(=O)O)CC(=O)Nc1ccccc1O)CC(=O)Nc1ccccc1O", "note": "[Compound 1]", "values": [{"measurement": "efficiency of labelling with Cu-67", "setting": "[1]", "value": "> 95", "unit": "%"}, {"measurement": "biodistribution GIT", "setting": "[2]; 1 min", "value": 3.82, "unit": "% Injected dose"}, {"measurement": "biodistribution bladder", "setting": "[2]; 1 min", "value": 0.12, "unit": "% Injected dose"}, {"measurement": "biodistribution blood", "setting": "[2]; 1 min", "value": 27.09, "unit": "% Injected dose"}, {"measurement": "biodistribution bone", "setting": "[2]; 1 min", "value": 5.34, "unit": "% Injected dose"}, {"measurement": "biodistribution heart", "setting": "[2]; 1 min", "value": 0.57, "unit": "% Injected dose"}, {"measurement": "biodistribution kidney", "setting": "[2]; 1 min", "value": 11.78, "unit": "% Injected dose"}, {"measurement": "biodistribution liver", "setting": "[2]; 1 min", "value": 12.07, "unit": "% Injected dose"}, {"measurement": "biodistribution lungs", "setting": "[2]; 1 min", "value": 1.54, "unit": "% Injected dose"}, {"measurement": "biodistribution muscle", "setting": "[2]; 1 min", "value": 23.48, "unit": "% Injected dose"}, {"measurement": "biodistribution skin", "setting": "[2]; 1 min", "value": 19.66, "unit": "% Injected dose"}, {"measurement": "biodistribution spleen", "setting": "[2]; 1 min", "value": 0.17, "unit": "% Injected dose"}, {"measurement": "biodistribution stomach", "setting": "[2]; 1 min", "value": 0.5, "unit": "% Injected dose"}, {"measurement": "biodistribution tail", "setting": "[2]; 1 min", "value": 2.42, "unit": "% Injected dose"}, {"measurement": "biodistribution urine", "setting": "[2]; 1 min", "value": 0, "unit": "% Injected dose"}, {"measurement": "biodistribution GIT", "setting": "[2]; 3 min", "value": 6.06, "unit": "% Injected dose"}, {"measurement": "biodistribution bladder", "setting": "[2]; 3 min", "value": 0.63, "unit": "% Injected dose"}, {"measurement": "biodistribution blood", "setting": "[2]; 3 min", "value": 12.02, "unit": "% Injected dose"}, {"measurement": "biodistribution bone", "setting": "[2]; 3 min", "value": 3.1, "unit": "% Injected dose"}, {"measurement": "biodistribution heart", "setting": "[2]; 3 min", "value": 0.23, "unit": "% Injected dose"}, {"measurement": "biodistribution kidney", "setting": "[2]; 3 min", "value": 11.23, "unit": "% Injected dose"}, {"measurement": "biodistribution liver", "setting": "[2]; 3 min", "value": 12.83, "unit": "% Injected dose"}, {"measurement": "biodistribution lungs", "setting": "[2]; 3 min", "value": 0.98, "unit": "% Injected dose"}, {"measurement": "biodistribution muscle", "setting": "[2]; 3 min", "value": 13.18, "unit": "% Injected dose"}, {"measurement": "biodistribution skin", "setting": "[2]; 3 min", "value": 19.28, "unit": "% Injected dose"}, {"measurement": "biodistribution spleen", "setting": "[2]; 3 min", "value": 0.1, "unit": "% Injected dose"}, {"measurement": "biodistribution stomach", "setting": "[2]; 3 min", "value": 0.98, "unit": "% Injected dose"}, {"measurement": "biodistribution tail", "setting": "[2]; 3 min", "value": 1.58, "unit": "% Injected dose"}, {"measurement": "biodistribution urine", "setting": "[2]; 3 min", "value": 5.62, "unit": "% Injected dose"}, {"measurement": "biodistribution GIT", "setting": "[2]; 5 min", "value": 4.77, "unit": "% Injected dose"}, {"measurement": "biodistribution bladder", "setting": "[2]; 5 min", "value": 0.68, "unit": "% Injected dose"}, {"measurement": "biodistribution blood", "setting": "[2]; 5 min", "value": 9.77, "unit": "% Injected dose"}, {"measurement": "biodistribution bone", "setting": "[2]; 5 min", "value": 2.88, "unit": "% Injected dose"}, {"measurement": "biodistribution heart", "setting": "[2]; 5 min", "value": 0.21, "unit": "% Injected dose"}, {"measurement": "biodistribution kidney", "setting": "[2]; 5 min", "value": 9.17, "unit": "% Injected dose"}, {"measurement": "biodistribution liver", "setting": "[2]; 5 min", "value": 11.82, "unit": "% Injected dose"}, {"measurement": "biodistribution lungs", "setting": "[2]; 5 min", "value": 0.77, "unit": "% Injected dose"}, {"measurement": "biodistribution muscle", "setting": "[2]; 5 min", "value": 9.81, "unit": "% Injected dose"}, {"measurement": "biodistribution skin", "setting": "[2]; 5 min", "value": 19.68, "unit": "% Injected dose"}, {"measurement": "biodistribution spleen", "setting": "[2]; 5 min", "value": 0.07, "unit": "% Injected dose"}, {"measurement": "biodistribution stomach", "setting": "[2]; 5 min", "value": 1.02, "unit": "% Injected dose"}, {"measurement": "biodistribution tail", "setting": "[2]; 5 min", "value": 3.76, "unit": "% Injected dose"}, {"measurement": "biodistribution urine", "setting": "[2]; 5 min", "value": 4.51, "unit": "% Injected dose"}, {"measurement": "biodistribution GIT", "setting": "[2]; 10 min", "value": 12.35, "unit": "% Injected dose"}, {"measurement": "biodistribution bladder", "setting": "[2]; 10 min", "value": 1.96, "unit": "% Injected dose"}, {"measurement": "biodistribution blood", "setting": "[2]; 10 min", "value": 5.34, "unit": "% Injected dose"}, {"measurement": "biodistribution bone", "setting": "[2]; 10 min", "value": 5.06, "unit": "% Injected dose"}, {"measurement": "biodistribution heart", "setting": "[2]; 10 min", "value": 0.12, "unit": "% Injected dose"}, {"measurement": "biodistribution kidney", "setting": "[2]; 10 min", "value": 5.58, "unit": "% Injected dose"}, {"measurement": "biodistribution liver", "setting": "[2]; 10 min", "value": 5.96, "unit": "% Injected dose"}, {"measurement": "biodistribution lungs", "setting": "[2]; 10 min", "value": 0.48, "unit": "% Injected dose"}, {"measurement": "biodistribution muscle", "setting": "[2]; 10 min", "value": 16.44, "unit": "% Injected dose"}, {"measurement": "biodistribution skin", "setting": "[2]; 10 min", "value": 15.68, "unit": "% Injected dose"}, {"measurement": "biodistribution spleen", "setting": "[2]; 10 min", "value": 0.06, "unit": "% Injected dose"}, {"measurement": "biodistribution stomach", "setting": "[2]; 10 min", "value": 1.16, "unit": "% Injected dose"}, {"measurement": "biodistribution tail", "setting": "[2]; 10 min", "value": 2.07, "unit": "% Injected dose"}, {"measurement": "biodistribution urine", "setting": "[2]; 10 min", "value": 11.64, "unit": "% Injected dose"}, {"measurement": "biodistribution GIT", "setting": "[2]; 30 min", "value": 20, "unit": "% Injected dose"}, {"measurement": "biodistribution bladder", "setting": "[2]; 30 min", "value": 1.23, "unit": "% Injected dose"}, {"measurement": "biodistribution blood", "setting": "[2]; 30 min", "value": 1.82, "unit": "% Injected dose"}, {"measurement": "biodistribution bone", "setting": "[2]; 30 min", "value": 1.12, "unit": "% Injected dose"}, {"measurement": "biodistribution heart", "setting": "[2]; 30 min", "value": 0.05, "unit": "% Injected dose"}, {"measurement": "biodistribution kidney", "setting": "[2]; 30 min", "value": 3.19, "unit": "% Injected dose"}, {"measurement": "biodistribution liver", "setting": "[2]; 30 min", "value": 3.09, "unit": "% Injected dose"}, {"measurement": "biodistribution lungs", "setting": "[2]; 30 min", "value": 0.2, "unit": "% Injected dose"}, {"measurement": "biodistribution muscle", "setting": "[2]; 30 min", "value": 4.98, "unit": "% Injected dose"}, {"measurement": "biodistribution skin", "setting": "[2]; 30 min", "value": 7.31, "unit": "% Injected dose"}, {"measurement": "biodistribution spleen", "setting": "[2]; 30 min", "value": 0.02, "unit": "% Injected dose"}, {"measurement": "biodistribution stomach", "setting": "[2]; 30 min", "value": 0.49, "unit": "% Injected dose"}, {"measurement": "biodistribution tail", "setting": "[2]; 30 min", "value": 1.53, "unit": "% Injected dose"}, {"measurement": "biodistribution urine", "setting": "[2]; 30 min", "value": 8.84, "unit": "% Injected dose"}, {"measurement": "degraded at 1 h", "setting": "[3]", "value": "≤ 15", "unit": "%"}]}]}
